Source: patent publication US10662203B2, “Pyrido[2,3-b]indole compounds for the treatment and prophylaxis of bacterial infection” (Hoffmann-La Roche Inc., priority 2017, dated 2020)
In brackets after ≈: the same amount, converted by molar mass.

How the values were obtained:
[1] = tested on: S. aureus (ATCC29213); assay: 50% growth inhibitory concentration (IC50) determination assay; assay type: cell-based; settings: Staphylococcus aureus, Iso-Sensitest broth, 0.098 = detection limit
In short: (§1)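 Compounds were two-fold serially diluted (50 to 0.097 μM final) in Iso-Sensitest broth, with ~5×10^5 CFU/mL bacteria. Plates were incubated at 35±2° C and growth followed by OD600 every 20 min over 16 h to derive IC50.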

[2] = tested on: A. baumannii (ATCC17978); assay: as above; assay type: cell-based; settings: Iso-Sensitest broth, 0.098 = detection limit
In short: as §1

[3] = tested on: K. pneumoniae (ATCC10031); assay: as above; assay type: cell-based; settings: Klebsiella pneumoniae, Iso-Sensitest broth, 0.098 = detection limit
In short: as §1

[4] = Lyophilisation solubility assay (LYSA); assay type: physicochemical; settings: 0.05 M phosphate buffer, HPLC-UV; for solubility thermodynamic: phosphate buffer, pH 6.5, aqueous buffer, thermodynamic from solid
Protocol: Lyophilisation Solubility Assay (LYSA):
The solubility of compounds of present invention was assessed by LYSA assay. Samples were prepared in duplicate from 10 mM DMSO stock solutions (20 μL) diluted in 30 μL pure DMSO. After evaporation of DMSO with a centrifugal vacuum evaporator, the residue was dissolved in 0.05 M phosphate buffer (150 μL, pH 6.5), which was stirred for one hour and shook for two hours. After one night, the solution was filtered using a microtiter filter plate. Then the filtrate and its 1/10 dilution were analyzed by HPLC-UV.

[5] = Acinetobacter baumannii, ATCC17978, A. baumannii ATCC17978

| SMILES | IC50 [1] | IC50 [2, 5] | IC50 [3] | solubility thermodynamic [4] | IC50 ([2]; A. baumannii ATCC17978) | Lysa ([4]; pH 6.5) |
| --- | --- | --- | --- | --- | --- | --- |
| CNc1cc(F)c(F)c2c1[nH]c1ncc(-c3cnc4c(c3)c(=O)c(C(=O)O)cn4C)c(N3CCC(C)(CN(C)C)C3)c12 (centres unmarked) [Example 1.101] | < 0.098 µM | 0.15 µM | < 0.098 µM | 214 µg/mL (≈ 372 µM) | – | – |
| CNc1cc(F)c(F)c2c1[nH]c1ncc(-c3cnc4c(c3)c(=O)c(C(=O)O)cn4C)c(N3CCC(N(C)CCO)C3)c12 (centres unmarked) [Example 1.200] | 0.1 µM | 0.57 µM | < 0.098 µM | 69 µg/mL (≈ 119 µM) | – | – |
| CNc1cc(F)c(F)c2c1[nH]c1ncc(-c3cnc4c(c3)c(=O)c(C(=O)O)cn4C)c(N3CCC(CN(C)C)CC3)c12 [Example 1.183] | < 0.098 µM | 0.103 µM | < 0.098 µM | 96 µg/mL (≈ 167 µM) | – | – |
| CNc1cc(F)c(F)c2c1[nH]c1ncc(-c3cnc4c(c3)c(=O)c(C(=O)O)cn4C)c(N3CCC(O)(CN(C)C)C3)c12 (centres unmarked) [Example 1.100] | 0.272 µM | 0.9 µM | < 0.098 µM | 632 µg/mL (≈ 1090 µM) | – | – |
| CNc1cc(F)cc2c1[nH]c1ncc(-c3cnc4c(c3)c(=O)c(C(=O)O)cn4NC)c(N3CCC(F)(CN(C)C)C3)c12 (centres unmarked) [Example 1.92] | < 0.098 µM | 0.14 µM | < 0.098 µM | 88 µg/mL (≈ 153 µM) | – | – |
| CNc1cc(Cl)cc2c1[nH]c1ncc(-c3cnc4c(c3)c(=O)c(C(=O)O)cn4C)c(N3CCC(N(C)C)C3)c12 (centres unmarked) [Example 1.139] | < 0.098 µM | 0.116 µM | < 0.098 µM | 20 µg/mL (≈ 36.6 µM) | – | – |
| CNc1cc(F)c(F)c2c1[nH]c1ncc(-c3cnc4c(c3)c(=O)c(C(=O)O)cn4C)c(N3CCCC(N(C)CCO)C3)c12 (centres unmarked) [Example 1.201] | 0.189 µM | 0.852 µM | < 0.098 µM | 124 µg/mL (≈ 210 µM) | – | – |
| CNc1cc(F)c(F)c2c1[nH]c1ncc(-c3cnc4c(c3)c(=O)c(C(=O)O)cn4C)c(N3C[C@H](OC)[C@@H](N(C)C)C3)c12 [Example 1.170] | < 0.098 µM | – | < 0.098 µM | – | 0.292 µM | 119 µg/mL |
| CNc1cc(F)c(F)c2c1[nH]c1ncc(-c3cnc4c(c3)c(=O)c(C(=O)O)cn4C)c(N3CCC4(CCCN(C)C4)C3)c12 (centres unmarked) [Example 1.190] | 12.2 µM | 0.143 µM | < 0.098 µM | 62 µg/mL (≈ 106 µM) | – | – |
| CNc1cc(F)cc2c1[nH]c1ncc(-c3cnc4c(c3)c(=O)c(C(=O)O)cn4C)c(N3C[C@H](C)[C@@H](N(C)C)C3)c12 [Example 1.152] | < 0.098 µM | 0.305 µM | < 0.098 µM | 49 µg/mL (≈ 90.1 µM) | – | – |
| CNc1cc(F)c(F)c2c1[nH]c1ncc(-c3cnc4c(c3)c(=O)c(C(=O)O)cn4C)c(N3CC4C(CN(C)C)CO[C@@H]4C3)c12 (some centres unmarked) [Example 1.88] | < 0.098 µM | 0.289 µM | < 0.098 µM | 485 µg/mL (≈ 803 µM) | – | – |
| CNc1cc(F)c(F)c2c1[nH]c1ncc(-c3cnc4c(c3)c(=O)c(C(=O)O)cn4C)c(N3CCC4(CCCN(CCOC)C4)C3)c12 (centres unmarked) [Example 1.195] | < 0.098 µM | 0.499 µM | < 0.098 µM | 29 µg/mL (≈ 45.9 µM) | – | – |
| CNc1cc(F)c(F)c2c1[nH]c1ncc(-c3cnc4c(c3)c(=O)c(C(=O)O)cn4NC)c(N3CCC4(F)CN(C)CC34)c12 (centres unmarked) [Example 1.121] | < 0.098 µM | 0.215 µM | < 0.098 µM | 58 µg/mL (≈ 97.9 µM) | – | – |
| CNc1cc(F)c(F)c2c1[nH]c1ncc(-c3cnc4c(c3)c(=O)c(C(=O)O)cn4C)c(N3CC[C@H]4CN(CCOC)CC43)c12 (some centres unmarked) [Example 1.96] | < 0.098 µM | 0.269 µM | < 0.098 µM | 169 µg/mL (≈ 280 µM) | – | – |
| CNc1cc(F)cc2c1[nH]c1ncc(-c3cnc4c(c3)c(=O)c(C(=O)O)cn4C)c(N3C[C@H](OC)[C@@H](N(C)C)C3)c12 [Example 1.171] | < 0.098 µM | 0.445 µM | < 0.098 µM | 46 µg/mL (≈ 82.2 µM) | – | – |
| CCNc1cc(C(F)(F)F)cc2c1[nH]c1ncc(-c3cnc4c(c3)c(=O)c(C(=O)O)cn4NC)c(N3CC[C@H]4CN(C)CC43)c12 (some centres unmarked) [Example 1.123] | < 0.098 µM | 0.696 µM | < 0.098 µM | 48 µg/mL (≈ 77.3 µM) | – | – |

Now from value to molecule:

| IC50 [1] | IC50 [2, 5] | IC50 [3] | solubility thermodynamic [4] | IC50 ([2]; A. baumannii ATCC17978) | Lysa ([4]; pH 6.5) | SMILES |
| --- | --- | --- | --- | --- | --- | --- |
| 0.122 µM | 0.155 µM | < 0.098 µM | 33 µg/mL (≈ 57.4 µM) | – | – | CNc1cc(F)c(F)c2c1[nH]c1ncc(-c3cnc4c(c3)c(=O)c(C(=O)O)cn4NC)c(N3C[C@@H]4CCN(C)[C@@H]4C3)c12 [Example 3.07B] |
| < 0.098 µM | 0.102 µM | < 0.098 µM | 26 µg/mL (≈ 46.5 µM) | – | – | CNc1cc(F)c(F)c2c1[nH]c1ncc(-c3cnc4c(c3)c(=O)c(C(=O)O)cn4C)c(N3CC[C@H]4CN(C)C4C3)c12 (some centres unmarked) [Example 1.213] |
| 0.193 µM | 0.317 µM | < 0.098 µM | > 612 µg/mL | – | – | CNc1cc(F)c(F)c2c1[nH]c1ncc(-c3cnc4c(c3)c(=O)c(C(=O)O)cn4C)c(N3CCC4C3CCCN4C)c12 (centres unmarked) [Example 1.246] |
| < 0.098 µM | 0.081 µM | < 0.098 µM | 49 µg/mL (≈ 83.4 µM) | – | – | CNc1cc(F)c(F)c2c1[nH]c1ncc(-c3cnc4c(c3)c(=O)c(C(=O)O)cn4C)c(N3CC4[C@H](CC[C@H]4N(C)C)C3)c12 (some centres unmarked) [Example 1.221] |
| < 0.098 µM | 0.558 µM | < 0.098 µM | 277 µg/mL (≈ 459 µM) | – | – | CNc1cc(F)c(F)c2c1[nH]c1ncc(-c3cnc4c(c3)c(=O)c(C(=O)O)cn4C)c(N3CC4[C@H](CCN4CCCO)C3)c12 (some centres unmarked) [Example 1.260] |
| < 0.098 µM | 0.081 µM | < 0.098 µM | 172 µg/mL (≈ 310 µM) | – | – | CNc1cc(F)cc2c1[nH]c1ncc(-c3cnc4c(c3)c(=O)c(C(=O)O)cn4C)c(N3CC[C@H]4CCN(C)[C@H]4C3)c12 [Example 3.18A] |
| < 0.098 µM | 0.11 µM | < 0.098 µM | 205 µg/mL (≈ 369 µM) | – | – | CNc1cc(F)cc2c1[nH]c1ncc(-c3cnc4c(c3)c(=O)c(C(=O)O)cn4C)c(N3CC[C@H]4CCN(C)C4C3)c12 (some centres unmarked) [Example 1.211] |
| < 0.098 µM | 0.21 µM | < 0.098 µM | 113 µg/mL (≈ 203 µM) | – | – | CCn1cc(C(=O)O)c(=O)c2cc(-c3cnc4[nH]c5c(NC)cc(F)cc5c4c3N3CC[C@H]4CN(C)CC43)cnc21 (some centres unmarked) [Example 1.289] |
| < 0.098 µM | 0.865 µM | < 0.098 µM | 49 µg/mL (≈ 85.6 µM) | – | – | CNc1cc(F)cc2c1[nH]c1ncc(-c3cnc4c(c3)c(=O)c(C(=O)O)cn4NC)c(N3C[C@H]4OCCN(C)[C@H]4C3)c12 [Example 3.23A] |
| < 0.098 µM | 0.293 µM | < 0.098 µM | 542 µg/mL (≈ 969 µM) | – | – | CNc1cc(F)c(F)c2c1[nH]c1ncc(-c3cnc4c(c3)c(=O)c(C(=O)O)cn4C)c(N3CC[C@@H]4C3CCN4C)c12 (some centres unmarked) [Example 1.245] |
| 0.217 µM | 0.344 µM | < 0.098 µM | 516 µg/mL (≈ 877 µM) | – | – | CNc1cc(F)c(F)c2c1[nH]c1ncc(-c3cnc4c(c3)c(=O)c(C(=O)O)cn4NC)c(N3CCC4C3CCCN4C)c12 (centres unmarked) [Example 1.247] |
| < 0.098 µM | 0.215 µM | < 0.098 µM | 151 µg/mL (≈ 263 µM) | – | – | CCN1CC2[C@@H](CCN2c2c(-c3cnc4c(c3)c(=O)c(C(=O)O)cn4C)cnc3[nH]c4c(NC)cc(F)c(F)c4c23)C1 (some centres unmarked) [Example 1.279] |
| < 0.098 µM | 0.789 µM | < 0.098 µM | 58 µg/mL (≈ 101 µM) | – | – | CNc1cc(F)cc2c1[nH]c1ncc(-c3cnc4c(c3)c(=O)c(C(=O)O)cn4NC)c(N3C[C@@H]4OCCN(C)[C@@H]4C3)c12 [Example 3.23B] |
| 0.133 µM | 0.275 µM | < 0.098 µM | 338 µg/mL (≈ 608 µM) | – | – | CNc1cc(F)cc2c1[nH]c1ncc(-c3cnc4c(c3)c(=O)c(C(=O)O)cn4C)c(N3CC[C@@H]4CCN(C)[C@@H]4C3)c12 [Example 3.18B] |
| < 0.098 µM | 0.277 µM | < 0.098 µM | 273 µg/mL (≈ 452 µM) | – | – | CNc1cc(F)c(F)c2c1[nH]c1ncc(-c3cnc4c(c3)c(=O)c(C(=O)O)cn4C(C)CO)c(N3CC[C@H]4CN(C)CC43)c12 (some centres unmarked) [Example 1.206] |
| < 0.098 µM | 0.049 µM | < 0.098 µM | 23 µg/mL (≈ 40.1 µM) | – | – | CNc1cc(F)c(F)c2c1[nH]c1ncc(-c3cnc4c(c3)c(=O)c(C(=O)O)cn4C)c(N3CC4CCCN(C)C4C3)c12 (centres unmarked) [Example 1.232] |
| < 0.098 µM | 0.361 µM | < 0.098 µM | 41 µg/mL (≈ 75.2 µM) | – | – | CNc1cc(F)c(F)c2c1[nH]c1ncc(-c3cnc4c(c3)c(=O)c(C(=O)O)cn4C)c(N3CC4[C@@H](C3)CN4C)c12 (some centres unmarked) [Example 1.252] |
| < 0.098 µM | 0.298 µM | < 0.098 µM | 472 µg/mL (≈ 838 µM) | – | – | CNc1cc(F)c(F)c2c1[nH]c1ncc(-c3cnc4c(c3)c(=O)c(C(=O)O)cn4C)c(N3C[C@@H](O)[C@@H](N(C)C)C3)c12 [Example 1.223] |
| < 0.098 µM | 0.272 µM | < 0.098 µM | 487 µg/mL (≈ 848 µM) | – | – | CNc1cc(F)c(F)c2c1[nH]c1ncc(-c3cnc4c(c3)c(=O)c(C(=O)O)cn4NC)c(N3CC[C@@H]4C3CCN4C)c12 (some centres unmarked) [Example 1.249] |
